Measured values published in the NIST ThermoML archive (doi:10.1016/j.fluid.2018.09.024).
± gives the expanded uncertainty stated by the source.

Test: activity coefficient (dimensionless); of the first substance listed, at infinite dilution; xn = mol fraction of the nth substance listed
Conditions: 101.33 kPa, Liquid, Chromatography, x1 = 0

`CCCc1ccccc1` [propylbenzene] + CCCCCCCCCCCC[N+](C)(C)CCOc1ccccc1.O=S(=O)([N-]S(=O)(=O)C(F)(F)F)C(F)(F)F gave an activity coefficient (318.15 K) of 1.09 ± 0.07, an activity coefficient (328.15 K) of 1.15 ± 0.07 and an activity coefficient (338.15 K) of 1.2 ± 0.08. The activity coefficient (348.15 K) was 1.26 ± 0.08, the activity coefficient (358.15 K) was 1.32 ± 0.09 and the activity coefficient (368.15 K) was 1.37 ± 0.09.
For `c1ccncc1` [pyridine] + CCCCCCCCCCCC[N+](C)(C)CCOc1ccccc1.N#C[N-]C#N, the activity coefficient (328.15 K) was 0.586 ± 0.042, the activity coefficient (338.15 K) was 0.604 ± 0.042 and the activity coefficient (348.15 K) was 0.622 ± 0.043. For the same compound, the activity coefficient (358.15 K) was 0.639 ± 0.044, the activity coefficient (368.15 K) was 0.656 ± 0.045 and the activity coefficient (378.15 K) was 0.673 ± 0.046.
With `c1ccncc1` [pyridine] + CCCCCCCCCCCC[N+](C)(C)CCOc1ccccc1.O=S(=O)([N-]S(=O)(=O)C(F)(F)F)C(F)(F)F the activity coefficient (318.15 K) was 0.278 ± 0.03, the activity coefficient (328.15 K) was 0.296 ± 0.031 and the activity coefficient (338.15 K) was 0.313 ± 0.031. It also gave an activity coefficient (348.15 K) of 0.33 ± 0.032, an activity coefficient (358.15 K) of 0.346 ± 0.032 and an activity coefficient (368.15 K) of 0.363 ± 0.033.
In the case of `C=Cc1ccccc1` [styrene] + CCCCCCCCCCCC[N+](C)(C)CCOc1ccccc1.N#C[N-]C#N, the activity coefficient (328.15 K) is reported as 0.905 ± 0.057, the activity coefficient (338.15 K) is reported as 0.94 ± 0.06 and the activity coefficient (348.15 K) is reported as 0.981 ± 0.062. It also gave an activity coefficient (358.15 K) of 1.02 ± 0.06, an activity coefficient (368.15 K) of 1.06 ± 0.07 and an activity coefficient (378.15 K) of 1.1 ± 0.07.
`C=Cc1ccccc1` [styrene] + CCCCCCCCCCCC[N+](C)(C)CCOc1ccccc1.O=S(=O)([N-]S(=O)(=O)C(F)(F)F)C(F)(F)F gave an activity coefficient (318.15 K) of 0.632 ± 0.044, an activity coefficient (328.15 K) of 0.672 ± 0.046 and an activity coefficient (338.15 K) of 0.711 ± 0.047. The activity coefficient (348.15 K) was 0.75 ± 0.049, the activity coefficient (358.15 K) was 0.788 ± 0.051 and the activity coefficient (368.15 K) was 0.83 ± 0.05.
`C1CCOC1` [tetrahydrofuran] + CCCCCCCCCCCC[N+](C)(C)CCOc1ccccc1.N#C[N-]C#N showed an activity coefficient (328.15 K) of 0.704 ± 0.047, an activity coefficient (338.15 K) of 0.726 ± 0.048 and an activity coefficient (348.15 K) of 0.749 ± 0.049. The activity coefficient (358.15 K) was 0.77 ± 0.05, the activity coefficient (368.15 K) was 0.791 ± 0.051 and the activity coefficient (378.15 K) was 0.81 ± 0.052.
`C1CCOC1` [tetrahydrofuran] + CCCCCCCCCCCC[N+](C)(C)CCOc1ccccc1.O=S(=O)([N-]S(=O)(=O)C(F)(F)F)C(F)(F)F showed an activity coefficient (318.15 K) of 0.364 ± 0.033, an activity coefficient (328.15 K) of 0.39 ± 0.034 and an activity coefficient (338.15 K) of 0.418 ± 0.035. For the same compound, the activity coefficient (348.15 K) was 0.446 ± 0.036, the activity coefficient (358.15 K) was 0.473 ± 0.037 and the activity coefficient (368.15 K) was 0.502 ± 0.038.
For `c1ccsc1` [thiophene] + CCCCCCCCCCCC[N+](C)(C)CCOc1ccccc1.N#C[N-]C#N, the activity coefficient (328.15 K) was 0.648 ± 0.044, the activity coefficient (338.15 K) was 0.674 ± 0.046 and the activity coefficient (348.15 K) was 0.699 ± 0.047. It also gave an activity coefficient (358.15 K) of 0.724 ± 0.048, an activity coefficient (368.15 K) of 0.749 ± 0.049 and an activity coefficient (378.15 K) of 0.773 ± 0.051.
In the case of `c1ccsc1` [thiophene] + CCCCCCCCCCCC[N+](C)(C)CCOc1ccccc1.O=S(=O)([N-]S(=O)(=O)C(F)(F)F)C(F)(F)F, the activity coefficient (318.15 K) is reported as 0.534 ± 0.039, the activity coefficient (328.15 K) is reported as 0.562 ± 0.04 and the activity coefficient (338.15 K) is reported as 0.591 ± 0.042. It also gave an activity coefficient (348.15 K) of 0.62 ± 0.043, an activity coefficient (358.15 K) of 0.649 ± 0.044 and an activity coefficient (368.15 K) of 0.68 ± 0.046.
Work on `Cc1ccccc1` [toluene] + CCCCCCCCCCCC[N+](C)(C)CCOc1ccccc1.N#C[N-]C#N yielded an activity coefficient (328.15 K) of 1.05 ± 0.07, an activity coefficient (338.15 K) of 1.1 ± 0.07 and an activity coefficient (348.15 K) of 1.15 ± 0.07. It also gave an activity coefficient (358.15 K) of 1.19 ± 0.08, an activity coefficient (368.15 K) of 1.24 ± 0.08 and an activity coefficient (378.15 K) of 1.28 ± 0.08.
For `Cc1ccccc1` [toluene] + CCCCCCCCCCCC[N+](C)(C)CCOc1ccccc1.O=S(=O)([N-]S(=O)(=O)C(F)(F)F)C(F)(F)F, the activity coefficient (318.15 K) was 0.681 ± 0.046, the activity coefficient (328.15 K) was 0.725 ± 0.048 and the activity coefficient (338.15 K) was 0.766 ± 0.05. The activity coefficient (348.15 K) was 0.81 ± 0.052, the activity coefficient (358.15 K) was 0.851 ± 0.055 and the activity coefficient (368.15 K) was 0.893 ± 0.057.
`C=COC(C)=O` [vinyl acetate] + CCCCCCCCCCCC[N+](C)(C)CCOc1ccccc1.N#C[N-]C#N gave an activity coefficient (328.15 K) of 1.24 ± 0.08, an activity coefficient (338.15 K) of 1.28 ± 0.08 and an activity coefficient (348.15 K) of 1.31 ± 0.09. It also gave an activity coefficient (358.15 K) of 1.35 ± 0.09, an activity coefficient (368.15 K) of 1.38 ± 0.09 and an activity coefficient (378.15 K) of 1.41 ± 0.09.
Work on `C=COC(C)=O` [vinyl acetate] + CCCCCCCCCCCC[N+](C)(C)CCOc1ccccc1.O=S(=O)([N-]S(=O)(=O)C(F)(F)F)C(F)(F)F yielded an activity coefficient (318.15 K) of 0.393 ± 0.034, an activity coefficient (328.15 K) of 0.414 ± 0.034 and an activity coefficient (338.15 K) of 0.434 ± 0.035. The activity coefficient (348.15 K) was 0.453 ± 0.036, the activity coefficient (358.15 K) was 0.473 ± 0.037 and the activity coefficient (368.15 K) was 0.493 ± 0.038.
`O` [water] + CCCCCCCCCCCC[N+](C)(C)CCOc1ccccc1.N#C[N-]C#N gave an activity coefficient (328.15 K) of 0.467 ± 0.036, an activity coefficient (338.15 K) of 0.479 ± 0.037 and an activity coefficient (348.15 K) of 0.489 ± 0.037. For the same compound, the activity coefficient (358.15 K) was 0.5 ± 0.04, the activity coefficient (368.15 K) was 0.51 ± 0.038 and the activity coefficient (378.15 K) was 0.52 ± 0.039.
Compound `O` [water] + CCCCCCCCCCCC[N+](C)(C)CCOc1ccccc1.O=S(=O)([N-]S(=O)(=O)C(F)(F)F)C(F)(F)F has an activity coefficient (318.15 K) of 3.65 ± 0.25, an activity coefficient (328.15 K) of 3.32 ± 0.23 and an activity coefficient (338.15 K) of 3.04 ± 0.21. It also gave an activity coefficient (348.15 K) of 2.8 ± 0.19, an activity coefficient (358.15 K) of 2.59 ± 0.18 and an activity coefficient (368.15 K) of 2.4 ± 0.16.
